How the values were obtained:
Experiment in all cases: Test D pre-/postemergence plant response
Assay type in all cases: in vivo
[1] = test system: Italian ryegrass (Lolium multiflorum)
Summary of the method: (§1)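 Visual 0–100 scoring (100 = complete control) versus untreated controls after 14–21 greenhouse days. Compounds, formulated in surfactant-containing non-phytotoxic solvent, were applied preemergence to seeded loam/sand and postemergence to 2–18 cm plants (1–4 leaves).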

[2] = test system: dayflower (Virginia (VA) dayflower, Commelina virginica)
Summary of the method: as §1

[3] = test system: bermudagrass (Cynodon dactylon)
Summary of the method: as §1

[4] = test system: black mustard (Brassica nigra)
Summary of the method: as §1

[5] = test system: spanishneedles (Bidens bipinnata)
Summary of the method: as §1

[6] = test system: Surinam grass (Brachiaria decumbens)
Summary of the method: as §1

[7] = test system: groundsel (common groundsel, Senecio vulgaris); settings: Postemergence
Summary of the method: as §1

[8] = test system: mallow (common mallow, Malva sylvestris); settings: Postemergence
Summary of the method: as §1

[9] = test system: field bindweed (Convolvulus arvensis)
Summary of the method: as §1

[10] = test system: guineagrass (Panicum maximum)
Summary of the method: as §1

[11] = test system: Russian thistle (Salsola kali); settings: Preemergence, 16 g ai/ha; scale 0 to 100, 0 no effect, 100 complete control
Summary of the method: as §1

[12] = test system: quackgrass (Elytrigia repens)
Summary of the method: as §1

[13] = test system: sandbur (southern sandbur, Cenchrus echinatus)
Summary of the method: as §1

[14] = test system: naked crabgrass (Digitaria nuda)
Summary of the method: as §1

[15] = test system: signalgrass (broadleaf signalgrass, Brachiaria platyphylla)
Summary of the method: as §1

[16] = Postemergence, 16 g ai/ha, scale 0 to 100
[17] = Postemergence, 31 g ai/ha, scale 0 to 100
[18] = Postemergence, 125 g ai/ha, scale 0 to 100 (0 no effect, 100 complete control)
[19] = Postemergence, 62 g ai/ha, scale 0 to 100 (0 no effect, 100 complete control)
[20] = Preemergence, 16 g ai/ha, scale 0 to 100, 0 no effect, 100 complete control
[21] = Preemergence, 31 g ai/ha, scale 0 to 100 (0 no effect, 100 complete control)
[22] = Preemergence, 125 g ai/ha, scale 0 to 100
[23] = Preemergence, 62 g ai/ha, scale 0 to 100
[24] = Postemergence, 31 g ai/ha, scale 0 to 100 (0 no effect, 100 complete control)
[25] = 125 g ai/ha, scale 0 to 100 (0 no effect, 100 complete control)
[26] = 62 g ai/ha, scale 0 to 100 (0 no effect, 100 complete control)

Cc1ccc(Cl)cc1-n1c(-c2ccccc2)ncc(C(=O)C2=C(O)CCCC2=O)c1=O [Compound 52]
Plant response rating, Ryegrass, Italian [1, 16]: 0 | Plant response rating, Ryegrass, Italian [1, 17]: 0 | Plant response rating, Ryegrass, Italian [1, 18]: 35 | Plant response rating, Ryegrass, Italian [1, 19]: 15 | Plant response rating, Ryegrass, Italian [1, 20]: 0 | Plant response rating, Ryegrass, Italian [1, 21]: 0 | Plant response rating, Ryegrass, Italian [1, 22]: 15 | Plant response rating, Dayflower, VA [2, 16]: 5 | Plant response rating, Dayflower, VA [2, 17]: 5 | Plant response rating, Dayflower, VA [2, 18]: 60 | Plant response rating, Dayflower, VA [2, 19]: 30 | Plant response rating, Dayflower, VA [2, 20]: 0 | Plant response rating, Dayflower, VA [2, 21]: 0 | Plant response rating, Dayflower, VA [2, 23]: 0 | Plant response rating, Dayflower, VA [2, 22]: 40 | Plant response rating, Bermudagrass [3, 16]: 75 | Plant response rating, Bermudagrass [3, 24]: 75 | Plant response rating, Bermudagrass [3, 18]: 80 | Plant response rating, Bermudagrass [3, 19]: 75 | Plant response rating, Bermudagrass [3, 20]: 30 | Plant response rating, Bermudagrass [3, 21]: 70 | Plant response rating, Bermudagrass [3, 23]: 90 | Plant response rating, Bermudagrass [3, 22]: 100 | Plant response rating, Black Mustard [4, 16]: 65 | Plant response rating, Black Mustard [4, 24]: 90 | Plant response rating, Black Mustard [4, 18]: 98 | Plant response rating, Black Mustard [4, 19]: 98 | Plant response rating, Black Mustard [4, 20]: 0 | Plant response rating, Black Mustard [4, 21]: 20 | Plant response rating, Black Mustard [4, 23]: 80 | Plant response rating, Black Mustard [4, 22]: 100 | Plant response rating, Spanishneedles [5, 16]: 75 | Plant response rating, Spanishneedles [5, 17]: 75 | Plant response rating, Spanishneedles [5, 18]: 80 | Plant response rating, Spanishneedles [5, 19]: 80 | Plant response rating, Spanishneedles [5, 20]: 35 | Plant response rating, Spanishneedles [5, 21]: 70 | Plant response rating, Spanishneedles [5, 22]: 98 | Plant response rating, Surinam Grass [6, 17]: 65 | Plant response rating, Surinam Grass [6, 18]: 90 | Plant response rating, Surinam Grass [6, 19]: 80 | Plant response rating, Surinam Grass [6, 20]: 0 | Plant response rating, Surinam Grass [6, 21]: 98 | Plant response rating, Surinam Grass [6, 22]: 98 | Plant response rating, Groundsel ([7]; 16 g ai/ha, scale 0 to 100): 100 | Plant response rating, Groundsel ([7]; 31 g ai/ha, scale 0 to 100): 100 | Plant response rating, Groundsel [7, 25]: 100 | Plant response rating, Groundsel [7, 26]: 100 | Plant response rating, Mallow ([8]; 16 g ai/ha, scale 0 to 100): 50 | Plant response rating, Mallow ([8]; 31 g ai/ha, scale 0 to 100): 65 | Plant response rating, Mallow [8, 25]: 75 | Plant response rating, Mallow [8, 26]: 65 | Plant response rating, Field Bindweed [9, 16]: 50 | Plant response rating, Field Bindweed [9, 17]: 70 | Plant response rating, Field Bindweed [9, 18]: 70 | Plant response rating, Field Bindweed [9, 19]: 70 | Plant response rating, Field Bindweed [9, 20]: 20 | Plant response rating, Field Bindweed [9, 23]: 20 | Plant response rating, Field Bindweed [9, 22]: 50 | Plant response rating, Guineagrass [10, 16]: 50 | Plant response rating, Guineagrass [10, 17]: 70 | Plant response rating, Guineagrass [10, 18]: 75 | Plant response rating, Guineagrass [10, 19]: 75 | Plant response rating, Guineagrass [10, 20]: 0 | Plant response rating, Guineagrass [10, 23]: 50 | Plant response rating, Russian Thistle [11]: 0 | Plant response rating, Quackgrass [12, 16]: 5 | Plant response rating, Quackgrass [12, 17]: 10 | Plant response rating, Quackgrass [12, 18]: 20 | Plant response rating, Quackgrass [12, 19]: 15 | Plant response rating, Quackgrass [12, 20]: 0 | Plant response rating, Quackgrass [12, 21]: 0 | Plant response rating, Quackgrass [12, 22]: 20 | Plant response rating, Sandbur [13, 16]: 65 | Plant response rating, Sandbur [13, 17]: 65 | Plant response rating, Sandbur [13, 18]: 80 | Plant response rating, Sandbur [13, 19]: 75 | Plant response rating, Sandbur [13, 20]: 0 | Plant response rating, Sandbur [13, 21]: 0 | Plant response rating, Sandbur [13, 22]: 98 | Plant response rating, Crabgrass, Naked [14, 16]: 70 | Plant response rating, Crabgrass, Naked [14, 17]: 75 | Plant response rating, Crabgrass, Naked [14, 18]: 95 | Plant response rating, Crabgrass, Naked [14, 19]: 95 | Plant response rating, Crabgrass, Naked [14, 20]: 0 | Plant response rating, Crabgrass, Naked [14, 21]: 0 | Plant response rating, Crabgrass, Naked [14, 23]: 20 | Plant response rating, Crabgrass, Naked [14, 22]: 80 | Plant response rating, Signalgrass [15, 16]: 50 | Plant response rating, Signalgrass [15, 17]: 60 | Plant response rating, Signalgrass [15, 18]: 90 | Plant response rating, Signalgrass [15, 19]: 80 | Plant response rating, Signalgrass [15, 20]: 0 | Plant response rating, Signalgrass [15, 21]: 0 | Plant response rating, Signalgrass [15, 22]: 90

From patent US8952024B2, “Herbicidal pyrimidone derivatives” (E I du Pont de Nemours and Company, priority 2009, dated 2015)
